In US11273168B2, “Methods of treating anxiety by administering a substituted quinolone” (OTSUKA PHARMACEUTICAL CO., LTD., priority 2010, dated 2022):
Counter-ions that a name gives are not always drawn. Like-named read-outs stand apart in the source and are kept apart here.

How the values were obtained:
Type in all cases: biochemical
Serotonin (5-HT) uptake = biological target: T1, Serotonin (5-HT) uptake (Rattus norvegicus, UniProt P31652); assay: Serotonin (5-HT) uptake inhibitory activity using rat brain synaptosome (frontal cortex); conditions: tritium-labeled 5-HT 8 nM, 37° C. 10 minutes
T1 construct: The suspension was used as a crude synaptosome fraction; from tissue; host or cells: rat (male Wistar) frontal cortex, crude synaptosome fraction
T1 sequence (P31652 whole entry): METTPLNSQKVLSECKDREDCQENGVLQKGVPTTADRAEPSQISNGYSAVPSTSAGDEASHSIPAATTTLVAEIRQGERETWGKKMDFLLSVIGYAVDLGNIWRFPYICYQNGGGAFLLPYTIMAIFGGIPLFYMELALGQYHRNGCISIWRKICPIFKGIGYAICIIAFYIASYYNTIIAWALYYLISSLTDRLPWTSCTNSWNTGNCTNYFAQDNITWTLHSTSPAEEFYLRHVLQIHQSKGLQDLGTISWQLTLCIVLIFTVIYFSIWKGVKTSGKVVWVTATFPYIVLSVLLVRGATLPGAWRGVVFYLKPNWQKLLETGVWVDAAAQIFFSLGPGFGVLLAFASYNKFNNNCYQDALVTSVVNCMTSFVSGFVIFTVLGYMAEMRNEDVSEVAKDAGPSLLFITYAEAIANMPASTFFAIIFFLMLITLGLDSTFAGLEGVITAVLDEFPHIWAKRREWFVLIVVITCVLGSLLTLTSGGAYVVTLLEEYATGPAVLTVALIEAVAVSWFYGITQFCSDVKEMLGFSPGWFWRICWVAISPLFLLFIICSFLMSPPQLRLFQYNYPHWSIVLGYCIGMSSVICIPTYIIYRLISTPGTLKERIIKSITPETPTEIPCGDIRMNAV
Protocol: Measurement of Serotonin (5-HT) Uptake Inhibitory Activity of Test Compound Using Rat Brain Synaptosome
(§1) Male Wistar rats were decapitated, and their brains were removed and dissected to remove the frontal cortex. The separated frontal cortex was placed in a 20-fold weight of a 0.32 molarity (M) sucrose solution and homogenized with a potter homogenizer. The homogenate was centrifuged at 1000 g at 4° C. for 10 minutes, and the supernatant was further centrifuged at 20000 g at 4° C. for 20 minutes. […] The suspension was used as a crude synaptosome fraction.
(§2) Uptake reaction was performed using each well of a 96-well round-bottom plate and a 200 μl volume in total of a solution containing pargyline (final concentration: 10 μM) and ascorbic acid (final concentration: 0.2 mg/ml).
(§3) Specifically, a solvent, unlabeled 5-HT, and serially diluted test compounds were separately added to the wells, and the synaptosome fraction was added in an amount 1/10 of the final volume to each well and preincubated at 37° C. for 10 minutes. Then, a tritium-labeled 5-HT solution (final concentration: 8 nM) was added thereto to initiate uptake reaction at 37° C. 10 minutes later, the uptake reaction was terminated by suction filtration through a 96-well glass fiber filter plate. Furthermore, the filter was washed with a cold saline and then sufficiently dried. MicroScint-O (PerkinElmer Co., Ltd.) was added thereto, and the residual radioactivity on the filter was measured.
(§4) An uptake value obtained by the addition of only the solvent was defined as 100%, and an uptake value (nonspecific uptake value) obtained by the addition of the unlabeled 5-HT (final concentration: 10 μM) was defined as 0%. A 50%, inhibitory concentration was calculated from the test compound concentrations and inhibitory activities thereat.

[1] = biological target: Norepinephrine (NE) uptake (Rattus norvegicus, UniProt Q9WTR4); assay: Norepinephrine (NE) uptake inhibitory activity using rat brain synaptosome (hippocampus)
Protocol: Measurement of Norepinephrine (NE) Uptake Inhibitory Activity of Test Compound Using Rat Brain Synaptosome
Male Wistar rats were decapitated, and their brains were removed and dissected to remove the hippocampus. The separated hippocampus was placed in a 20-fold weight of a 0.32 molarity (M) sucrose solution and homogenized with a potter homogenizer. The homogenate was centrifuged at 1000 g at 4° C. for 10 minutes, and the supernatant was further centrifuged at 20000 g at 4° C. for 20 minutes. The pellet was suspended in an incubation buffer (20 mM HEPES buffer (pH 7.4) containing 10 mM glucose, 145 mM sodium chloride, 4.5 mM potassium chloride, 1.2 mM magnesium chloride, and 1.5 mM calcium chloride). The suspension was used as a crude synaptosome fraction.
as §2
as §3, with “unlabeled NE,” for “unlabeled 5-HT,”, “tritium-labeled NE” for “tritium-labeled 5-HT”, “concentration: 12” for “concentration: 8”, “C. Ten” for “C. 10”
as §4, with “NE” for “5-HT”, “50%” for “50%,”

Dopamine (DA) uptake = biological target: T2, Dopamine (DA) uptake (Rattus norvegicus, UniProt P23977); assay: Dopamine (DA) uptake inhibitory activity using rat brain synaptosome (corpus striatum); conditions: tritium-labeled DA 2 nM, 37° C. ten minutes, read-out: 50% Inhibitory concentration
T2 construct: The suspension was used as a crude synaptosome fraction; from tissue; host or cells: rat (male Wistar) corpus striatum, crude synaptosome fraction
T2 sequence (P23977 whole entry): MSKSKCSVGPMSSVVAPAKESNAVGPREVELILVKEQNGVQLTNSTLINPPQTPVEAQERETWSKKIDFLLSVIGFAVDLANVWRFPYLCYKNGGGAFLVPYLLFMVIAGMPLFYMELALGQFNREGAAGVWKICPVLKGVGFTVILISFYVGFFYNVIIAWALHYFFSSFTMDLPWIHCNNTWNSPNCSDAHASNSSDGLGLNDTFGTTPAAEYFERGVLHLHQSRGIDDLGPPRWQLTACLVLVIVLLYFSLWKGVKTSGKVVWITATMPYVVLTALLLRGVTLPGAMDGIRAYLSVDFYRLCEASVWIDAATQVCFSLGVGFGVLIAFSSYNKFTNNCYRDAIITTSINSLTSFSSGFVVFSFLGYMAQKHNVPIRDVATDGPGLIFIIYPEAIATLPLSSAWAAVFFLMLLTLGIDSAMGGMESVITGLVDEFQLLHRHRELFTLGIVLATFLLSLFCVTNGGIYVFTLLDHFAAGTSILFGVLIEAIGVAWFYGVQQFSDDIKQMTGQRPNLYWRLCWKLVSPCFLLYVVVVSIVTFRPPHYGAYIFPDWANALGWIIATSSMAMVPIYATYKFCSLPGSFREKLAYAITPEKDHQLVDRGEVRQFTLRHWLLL
Protocol: Measurement of Dopamine (DA) Uptake Inhibitory Activity of Test Compound Using Rat Brain Synaptosome
as §1, with “corpus striatum.” for “frontal cortex.”, “corpus striatum” for “frontal cortex”
Uptake reaction was performed using each well of a 96-well round-bottom plate and a 200 μl volume in total of a solution containing pargyline (final concentration: 10 μM) and ascorbic acid (final concentration: 0.2 mg/mil).
as §3, with “unlabeled DA,” for “unlabeled 5-HT,”, “tritium-labeled DA” for “tritium-labeled 5-HT”, “concentration: 2” for “concentration: 8”, “C. Ten” for “C. 10”
as §4, with “DA” for “5-HT”, “50%” for “50%,”

[2] = read-out: 50% Inhibitory concentration
[3] = tritium-labeled NE 12 nM, 37° C. ten minutes, read-out: 50% inhibitory concentration
[4] = read-out: 50% inhibitory concentration, tritium-labeled NE 12 nM, 37° C. ten minutes

SMILES | IC50 (Serotonin (5-HT) uptake; [2]) | IC50 [1, 3] | IC50 (Dopamine (DA) uptake) | IC50 (Serotonin (5-HT) uptake; 50% Inhibitory concentration) | IC50 [1, 4]
CC1(C)CN(c2ccc(OC(F)F)c(Cl)c2)[C@@H]2CCCC[C@H]2N1 [Example 1026] | 2.4 nM | 4.2 nM | 12.3 nM |  | 
CN1[C@@H]2CCCC[C@@H]2N(c2cccc3sccc23)CC1(C)C [Example 125] | 4.7 nM | 1.9 nM | 5.2 nM |  | 
Clc1ccc(N2CCN[C@H]3CCCC[C@@H]32)c2ccoc12 [Example 1083] | 5.1 nM | 2.5 nM | 53.7 nM |  | 
C[C@@H]1CN(c2ccc3ncsc3c2)[C@H]2CCCC[C@@H]2N1 [Example 1326] | 37.8 nM | 1.8 nM | 91.8 nM |  | 
CN1[C@H]2CCCC[C@@H]2N(c2ccc(Cl)c(Cl)c2)CC1(C)C [Example 247] | 42.8 nM | 6.6 nM | 8.7 nM |  | 
CC1(C)CN(c2cc(F)cc3ccsc23)[C@@H]2CCCC[C@@H]2N1 [Example 621] |  |  | 128 nM | 7 nM | 0.7 nM
c1cc2cc(N3CC4(CCCC4)N[C@H]4CCCC[C@@H]43)ccc2s1 (relative stereo) [Example 307] | 19.3 nM | 40.4 nM | 68.2 nM |  | 
CC1(C)CN(c2ccc3sccc3c2)[C@H]2CCCC[C@@H]2N1 [Example 186] | 5.2 nM | 3.8 nM | 29.8 nM |  | 
COc1cc2ccc(N3CC(C)(C)N[C@H]4CCCC[C@H]43)cc2cc1C#N [Example 610] | 4.6 nM | 5.9 nM | 13.2 nM |  | 
CC1(C)CN(c2cccc3ccsc23)[C@H]2CCCC[C@H]2N1 [Example 130] | 5.3 nM | 0.5 nM | 3.9 nM |  | 
C[C@@H]1CN(c2ccc(OC(F)F)c(F)c2)[C@H]2CCCC[C@@H]2N1 [Example 1534] |  |  | 215 nM | 38.1 nM | 4 nM
Cc1noc(-c2ccc(N3C[C@@H](C)N[C@H]4CCCC[C@@H]43)cc2)n1 [Example 1333] | 84.2 nM | 39.6 nM | 73 nM |  | 
CN1[C@H]2CCCC[C@@H]2N(c2ccc3sccc3c2)CC1(C)C [Example 187] | 5.8 nM | 6 nM | 12.1 nM |  | 
COc1cc2ccc(N3CC(C)(C)N[C@@H]4CCCC[C@H]43)cc2cc1C#N [Example 962] | 18.7 nM | 31.9 nM | 69.5 nM |  | 
CC1(C)CN(c2csc3ccccc23)[C@@H]2CCCC[C@@H]2N1 [Example 717] | 4.2 nM | 4.8 nM | 60.1 nM |  | 
CC1(C)CN(c2ccc(F)c3occc23)[C@H]2CCCC[C@@H]2N1 [Example 192] | 2.9 nM | 3.6 nM | 8.6 nM |  | 
COc1ccc(N2CC3(CCC3)N[C@H]3CCCC[C@H]32)c2ccoc12 [Example 579, (4a′R,8a′S)-4′-(7-methoxybenzofuran-4-yl)octahydro-1′H-spiro[cyclobutane-1,2′-quinoxaline]] | 4.5 nM | 5.1 nM | 46.5 nM |  | 
CN1[C@@H]2CCCC[C@@H]2N(c2cccc3occc23)CC1(C)C [Example 132] | 8.8 nM | 3.1 nM | 3.9 nM |  | 
CC1(C)CN(c2ccc(F)c3occc23)[C@@H]2CCCC[C@@H]2N1 [Example 77, (4aS,8aR)-1-(7-fluorobenzofuran-4-yl)-3,3-dimethyldecahydroquinoxaline] | 0.8 nM | 3.9 nM | 41.2 nM |  | 

Now from value to molecule, other results behind:

IC50 (Serotonin (5-HT) uptake; [2]) | IC50 [1, 3] | IC50 (Dopamine (DA) uptake) | SMILES | IC50 (Serotonin (5-HT) uptake; 50% Inhibitory concentration) | IC50 [1, 4]
5.1 nM | 14.3 nM | 85.4 nM | CC1(C)CN(c2ccc3sccc3c2)[C@H]2CCC[C@@H]2N1 (relative stereo) [Example 13] |  | 
35.6 nM | 9.1 nM | 165 nM | CC1(C)CN(c2ccc(F)c3ccccc23)[C@H]2CCCC[C@@H]2N1 (relative stereo) [Example 409] |  | 
7.1 nM | 87.3 nM | 264 nM | CC1(C)CN(c2ccc(F)c(Cl)c2)[C@@H]2CCCC[C@@H]2N1 [Example 112, (4aS,8aR)-1-(3-chloro-4-fluorophenyl)-3,3-dimethyldecahydroquinoxaline hydrochloride] |  | 
6.8 nM | 7.5 nM | 9.8 nM | CC1(C)CN(c2ccc3sccc3c2)[C@@H]2CCCCC[C@@H]2N1 (racemic) [Example 344] |  | 
4.1 nM | 6 nM | 68.8 nM | CC1(C)CN(c2ccc3[nH]c(C#N)cc3c2)[C@H]2CCCC[C@@H]2N1 [Example 582, (4aS,8aS)-1-(2-cyano-1H-indol-5-yl) 3,3-dimethyldecahydroquinoxaline] |  | 
3.8 nM | 7.5 nM | 54 nM | Cc1c(Cl)cccc1N1CC(C)(C)N[C@H]2CCCC[C@H]21 [Example 468] |  | 
0.9 nM | 1.9 nM | 76.1 nM | CC1(C)CN(c2ccc(OC(F)F)c(F)c2)[C@H]2CCCC[C@@H]2N1 [Example 587, (4aS,8aS)-1-(4-(difluoromethoxy)-3-fluorophenyl)-3,3-dimethyldecahydroquinoxaline dihydrochloride] |  | 
6.4 nM | 4.6 nM | 27.3 nM | CC1(C)CN(c2ccc3sccc3c2)[C@H]2CCCCC[C@@H]2N1 (relative stereo) [Example 348] |  | 
6.8 nM | 3.8 nM | 8.8 nM | CC1(C)CN(c2ccc(Cl)c(Cl)c2)[C@H]2CCCC[C@@H]2N1 [Example 246] |  | 
6.5 nM | 0.6 nM | 4.3 nM | CC1(C)CN(c2ccc(F)c3[nH]ccc23)[C@H]2CCCC[C@H]2N1 [Example 780] |  | 
9.6 nM | 40.1 nM | 67.7 nM | CC1(C)CCN(c2ccc(Cl)c(Cl)c2)[C@@H]2CCCC[C@@H]2N1 (relative stereo) [Example 322] |  | 
7.3 nM | 4.8 nM | 52.8 nM | CC1(C)CN(c2cc(Cl)c3occc3c2)[C@H]2CCCC[C@@H]2N1 [Example 884] |  | 
4.8 nM | 8.7 nM | 38.6 nM | CC1(C)CN(c2ccc3[nH]c(C#N)cc3c2)[C@@H]2CCCC[C@H]2N1 [Example 993] |  | 
7.4 nM | 3.7 nM | 38.8 nM | COc1c(F)cc(N2CC(C)(C)N[C@H]3CCCC[C@@H]32)cc1F [Example 233] |  | 
5.4 nM | 3 nM | 19.9 nM | CC1(C)CN(c2ccc(F)c3[nH]ccc23)[C@H]2CCCC[C@@H]2N1 [Example 895] |  | 
